Laboratory results: patent US8969410B1, “Pharmaceutical composition for alleviating or treating gout and uses thereof” (Industrial Technology Research Institute, priority 2013, dated 2015)

Key:
Type in all cases: in vivo
[1] = system: leukocyte cell (CD45+ cells); experiment: Mouse air pouch model of MSU-induced gout: leukocyte cell density in exudate by flow cytometry; settings: for AVERAGE VALUES (normalized leukocyte cell density): Example 4, Table 2, topical paste 100 mg/mouse (5 mg actives total) 15 h prior to MSU, exudate 5 h after MSU; for INHIBITION RATE (leukocytes): Example 4, Table 2, vs blank control, topical paste 100 mg/mouse (5 mg actives total) 15 h prior to MSU
From the text: (§1) Mouse Air pouch model: this mouse model may be referenced to the methods and the experimental details as in the published article “Role of S100A8 and S100A9 in neutrophil recruitment in response to monosodium urate monohydrate crystals in the air-pouch model of acute gouty arthritis”, Arthritis Rheum 2003 August, 48(8):2310-20. The full content of such document as a whole is incorporated by reference herein and made a part of this specification.
(§2) Before the experiment, the mice are shaved to remove back hair. At day 0 sterile filtered air (2 ml/per mouse) is injected through 0.22 μm microfilter to the back of each mouse subcutaneously, so that a pseudosynovial cavity is formed in each mouse. At day 3, an air booster (3 ml/mouse) is again given to each mouse, so that the air pouch is maintained round. Later, the mice are weighed and grouped so that the average weight of the mice in each group is about the same. At day 6 monosodium urate (MSU) crystal suspension (5 mg in 2 ml/per mouse) is injected into the air pouch. Topical application of the paste (100 mg paste/per mouse) is administrated 15 hours prior to MSU stimulation. At a specific time (5 hours) after the injection of MSU, the mice were euthanized with an excess of carbon dioxide, 2 ml PBS per mouse is injected into the air pouch, and the air pouch is carefully cut to collect the exudate. The collected exudate is subjected to the centrifugation at 1,000 rpm, 4° C. for 5 minutes, and the supernatant is then placed in a 96-well plate and stored at −20° C. An ELISA kit (purchased from R&D Systems) is used to analyze the contents of IL-1β and IL-6 in the exudate. The precipitate is resuspended and reacted with 1 ml red blood cell lysis buffer (RBC lysis buffer) for one minute to remove the red blood cells, followed by adding 1 ml PBS to terminate the reaction, centrifuged at 1,000 rpm, 25° C. for 5 minutes, and the supernatant is discarded. The precipitate is then resuspended in 1 ml PBS as the cell suspension and the cell suspension is filtered by filter membrane (BD Falcon 100 μm Nylon filter strainer) and the filtered cell suspension is dispensed into several tubes (0.25 ml/tube) for subsequent cell counting or for labelling with various differentiation antigen markers (such as cluster of differentiation (CD) markers). The flow cytometry is used for cell counting of the various cells.
(§3) In order to investigate the anti-gout efficacy of AG02-RA1 and AG04-RA1, either used alone or in combination, the experiments are performed to test AG02-RA1 alone, AG04-RA1 alone and the combination (s) of AG02-RA1:AG04-RA1 in the ratio of 50:50 (Composition Nos. 1, 2 and 3 as shown in Table 1). […]

[2] = system: neutrophil cell (CD45+/Ly6G+ cells); experiment: Mouse air pouch model of MSU-induced gout: neutrophil cell density in exudate by flow cytometry; settings: for AVERAGE VALUES (neutrophil cell density): Example 4, Table 3, topical paste 100 mg/mouse (5 mg actives total) 15 h prior to MSU, exudate 5 h after MSU; for INHIBITION RATE (neutrophils): Example 4, Table 3, vs blank control, topical paste 100 mg/mouse (5 mg actives total)
From the text: as §1, §2, §3

interleukin-6 (mIL-6) = experiment: Mouse air pouch model of MSU-induced gout: IL-6 in exudate by ELISA; settings: Example 4, FIG. 4; topical paste 100 mg/mouse (5 mg actives total) 15 h prior to MSU; exudate 5 h after MSU
From the text: as §1
(§4) Before the experiment, the mice are shaved to remove back hair. At day 0 sterile filtered air (2 ml/per mouse) is injected through 0.22 μm microfilter to the back of each mouse subcutaneously, so that a pseudosynovial cavity is formed in each mouse. At day 3, an air booster (3 ml/mouse) is again given to each mouse, so that the air pouch is maintained round. Later, the mice are weighed and grouped so that the average weight of the mice in each group is about the same. At day 6 monosodium urate (MSU) crystal suspension (5 mg in 2 ml/per mouse) is injected into the air pouch. Topical application of the paste (100 mg paste/per mouse) is administrated 15 hours prior to MSU stimulation. At a specific time (5 hours) after the injection of MSU, the mice were euthanized with an excess of carbon dioxide, 2 ml PBS per mouse is injected into the air pouch, and the air pouch is carefully cut to collect the exudate. […]

interleukin-1β (mIL-1β) = experiment: Mouse air pouch model of MSU-induced gout: IL-1β in exudate by ELISA; settings: Example 4, FIG. 3; topical paste 100 mg/mouse (5 mg actives total) 15 h prior to MSU; exudate 5 h after MSU
From the text: as §1, §4

Compound	AVERAGE VALUES (normalized leukocyte cell density) [1] [cells*10^3/ml]	INHIBITION RATE (leukocytes) [1] [%]	AVERAGE VALUES (neutrophil cell density) [2] [cells*10^3/ml]	INHIBITION RATE (neutrophils) [2] [%]	inhibition rate of interleukin-6 secretion amount (interleukin-6 (mIL-6)) [%]	inhibition rate of interleukin-1β secretion amount (interleukin-1β (mIL-1β)) [%]
C=C1C(=O)OC2/C=C(\C)CC3C=C(CC/C=C(\C)CCC12)C(=O)O3 (stereo not shown) [AG02-RA1, 3,7,11,15(17)-cembratetraene-16,2:19,6-diolide-3484-37-5(3E,12E)-3,12-dimethyl-8-methylene-6,18-dioxa-tricyclo[14.2.1.0.5,9]nonadeca-3,12,16(19)-triene-7,17-dione]	1609	−100	133	63	–	–
CC(=O)OCC=Cc1ccc(OC(C)=O)cc1 [AG04-RA1, 4-(3-acetoxy-propenyl)-phenyl acetate]	670	17	205	43	> 50	> 50
